The values that follow come from US4303664A, “Novel penicillin derivatives containing a coumarin nucleus and medicines containing the same” (Teijin Limited, priority 1978, dated 1981).

Data set [1] relates to Klebsiella neumoniae ATCC10031. As to the kind of experiment: Bactericidal test (MIC), Klebsiella neumoniae ATCC10031. It is filed as cell-based. The note with it: (6) Klebsiella neumoniae ATCC10031; read-out: MIC. From the text:
(§1) Results of bactericidal tests (MIC, r/ml) on the penicillin derivatives of this invention prepared in the above examples are shown in the following table.

The subject of data set [2] is Pseudomonas aeruginosa Tid-53. Kind of data set: Bactericidal test (MIC), Pseudomonas aeruginosa Tid-53. The class given is cell-based. The note with it: TID53; (14) Pseudomonas aeruginosa Tid-53.
Excerpt: as §1

Data set [3] has as its system Escherichia Coli NIHJ JC-2. Kind of data set: Bactericidal test (MIC), Escherichia Coli NIHJ JC-2. The note with it: NIHJJC2; (5) Escherichia Coli NIHJ JC-2. The class given is cell-based.
Excerpt: as §1

Data set [4] concerns Pseudomonas aeruginosa 130. As to the kind of experiment: Bactericidal test (MIC), Pseudomonas aeruginosa 130. The note with it: (16) Pseudomonas aeruginosa 130. It is filed as cell-based.
Excerpt: as §1

In data set [5] the test system is Pseudomonas aeruginosa IFO-3080. Kind of data set: Bactericidal test (MIC), Pseudomonas aeruginosa IFO-3080. The class given is cell-based. Particulars: IFO3080; (12) Pseudomonas aeruginosa IFO-3080; read-out: MIC.
Excerpt: as §1

Data set [6] has as its system Salmonella typhimurium G-20. Kind of data set: Bactericidal test (MIC), Salmonella typhimurium G-20. The note with it: Salmonella enterica; (4) Salmonella typhimurium G-20. The class given is cell-based.
Excerpt: as §1

For data set [7], the system named is Pseudomonas aeruginosa GN-315. Kind of data set: Bactericidal test (MIC), Pseudomonas aeruginosa GN-315. The class given is cell-based. The note with it: GN315; (15) Pseudomonas aeruginosa GN-315.
Excerpt: as §1

Data set [8] in a line: Acute toxicity values [(LD50), mouse]. The note with it: in vivo. From the text: Acute toxicity values [(LD50), mouse] of some penicillin derivatives of this invention are illustrated in the following table.
The test system of data set [9] is Staphylococcus aureus 1248. As to the kind of experiment: Bactericidal test (MIC), Staphylococcus aureus 1248. It is filed as cell-based. Particulars: (2) Staphylococcus aureus 1248; read-out: MIC.
Excerpt: as §1

The subject of data set [10] is Staphylococcus aureus 209-p. Kind of data set: Bactericidal test (MIC), Staphylococcus aureus 209-p. The class given is cell-based. The note with it: (1) Staphylococcus aureus 209-p.
Excerpt: as §1

Another data set deals with Morganella var. G-2. As to the kind of experiment: Bactericidal test (MIC), Morganella var. G-2. The class given is cell-based. The note with it: VAR.G2; (9) Morganella var. G-2; read-out: MIC.
Excerpt: as §1

The subject of data set [11] is Enterobacter cloacae IF012937. As to the kind of experiment: Bactericidal test (MIC), Enterobacter cloacae IF012937. It is filed as cell-based. Particulars: (8) Enterobacter cloacae IF012937.
Excerpt: as §1

In data set [12] the test system is Pseudomonas aeruginosa 0-37. Kind of data set: Bactericidal test (MIC), Pseudomonas aeruginosa 0-37. It is filed as cell-based. The note with it: 037; (13) Pseudomonas aeruginosa 0-37.
Excerpt: as §1

Data set [13] is described as follows: Rates of protein fixation (human serum protein). It is filed as in vitro ADME. The note with it: read-out: Rate of protein fixation (converted). An excerpt: Rates of protein fixation (human serum protein) of the penicillin derivatives of this invention are illustrated as follows: […]
The next data set relates to Enterobactor cloacae 147. Kind of data set: Bactericidal test (MIC), Enterobactor cloacae 147. The note with it: (7) Enterobactor cloacae 147. The class given is cell-based.
Excerpt: as §1

For the next data set, the system named is Bacillus subtilis. Kind of data set: Bactericidal test (MIC), Bacillus subtilis. It is filed as cell-based. Particulars: (3) Bacillus subtilis.
Excerpt: as §1

In a further data set the test system is Rettgerella var. Tid-21. As to the kind of experiment: Bactericidal test (MIC), Rettgerella var. Tid-21. The class given is cell-based. The note with it: (10) Rettgerella var. Tid-21; read-out: MIC.
Excerpt: as §1

A further data set concerns Serratia G-18. Kind of data set: Bactericidal test (MIC), Serratia G-18. The class given is cell-based. Particulars: G18; (11) Serratia G-18; read-out: MIC.
Excerpt: as §1

Values after ≈ are worked out from the molar mass of the structure shown.

For `COc1cccc2cc(C(=O)N[C@@H](C(=O)N[C@@H]3C(=O)N4[C@@H]3SC(C)(C)[C@@H]4C(=O)O)c3ccccc3)c(=O)oc12` [Example 6, D(-)-α-(8-Methoxycoumarin-3-carbonamido)benzylpenicillin], the minimal inhibitory concentration (MIC) in data set [1] was 0.8 µg/mL (≈ 1.45 µM); in data set [2] it was 6.25 µg/mL (≈ 11.3 µM); in data set [3], < 0.4 µg/mL; in data set [4], 1.56 µg/mL (≈ 2.83 µM); in [5], 0.8 µg/mL (≈ 1.45 µM); in [6] it was < 0.4 µg/mL. Also, the MIC is 3.13 µg/mL (≈ 5.67 µM) in data set [7]; 0.8 µg/mL (≈ 1.45 µM) in data set [9]; < 0.4 µg/mL in data set [10]; 0.8 µg/mL (≈ 1.45 µM) with Morganella var. G-2; 6.25 µg/mL (≈ 11.3 µM) in data set [11]; 12.5 µg/mL (≈ 22.7 µM) in [12]. The MIC in the data set on Enterobactor cloacae 147 was 3.13 µg/mL (≈ 5.67 µM); with Bacillus subtilis it was < 0.4 µg/mL; in the data set with Rettgerella var. Tid-21 it was 3.13 µg/mL (≈ 5.67 µM); with Serratia G-18 it was 6.25 µg/mL (≈ 11.3 µM). Besides, the LD50 is > 4000 mg/kg in data set [8] (Oral) and 2000 mg/kg in data set [8] (ip, Intraabdominal). Moreover, the fraction unbound in [13] is 0.42.
As for `CC1(C)S[C@@H]2[C@H](NC(=O)[C@H](NC(=O)c3cc4cc(Cl)ccc4oc3=O)c3ccccc3)C(=O)N2[C@H]1C(=O)O` [Example 2, D(-)-α-(6-Chlorocoumarin-3-carbonamido)benzylpenicillin], the MIC is 1.56 µg/mL (≈ 2.81 µM) in data set [1]; 25 µg/mL (≈ 45 µM) in [2]; < 0.4 µg/mL in [3]; 6.25 µg/mL (≈ 11.2 µM) in [4]; 3.13 µg/mL (≈ 5.63 µM) in [5]; < 0.4 µg/mL in data set [6]. Also, the minimal inhibitory concentration (MIC) is 25 µg/mL (≈ 45 µM) in [7]; 1.56 µg/mL (≈ 2.81 µM) in data set [9]; < 0.4 µg/mL in data set [10]; 12.5 µg/mL (≈ 22.5 µM) in the data set with Morganella var. G-2; 25 µg/mL (≈ 45 µM) in data set [11]; 50 µg/mL (≈ 89.9 µM) in data set [12]. Moreover, the MIC is 25 µg/mL (≈ 45 µM) against Enterobactor cloacae 147, < 0.4 µg/mL with Bacillus subtilis, 12.5 µg/mL (≈ 22.5 µM) with Rettgerella var. Tid-21 and 50 µg/mL (≈ 89.9 µM) in the data set with Serratia G-18. Also, the fraction unbound in data set [13] was 0.33.
For the compound `CC(=O)Oc1ccc2oc(=O)c(C(=O)N[C@@H](C(=O)N[C@@H]3C(=O)N4[C@@H]3SC(C)(C)[C@@H]4C(=O)O)c3ccccc3)cc2c1` [Example 9, D(-)-α-(6-Acetoxycoumarin-3-carbonamido)benzylpenicillin], the MIC was < 0.4 µg/mL in [1]; 6.25 µg/mL (≈ 10.8 µM) in data set [2]; < 0.4 µg/mL in [3]; < 0.4 µg/mL in data set [4]; 0.8 µg/mL (≈ 1.38 µM) in data set [5]; < 0.4 µg/mL in [6]. The MIC in [7] was 6.25 µg/mL (≈ 10.8 µM); in data set [9], 3.13 µg/mL (≈ 5.4 µM); in [10], < 0.4 µg/mL; in the data set on Morganella var. G-2, 6.25 µg/mL (≈ 10.8 µM); in data set [11], 25 µg/mL (≈ 43.1 µM); in data set [12], 25 µg/mL (≈ 43.1 µM). Further, the MIC with Enterobactor cloacae 147 is 3.13 µg/mL (≈ 5.4 µM); against Bacillus subtilis it was < 0.4 µg/mL; with Rettgerella var. Tid-21, 3.13 µg/mL (≈ 5.4 µM); in the data set with Serratia G-18, 25 µg/mL (≈ 43.1 µM). The LD50 in data set [8] (Oral) was > 4000 mg/kg; in data set [8] (ip, Intraabdominal) it was 2000 mg/kg. Also, the fraction unbound in data set [13] was 0.2.

Usually MIC stands for the lowest concentration found to suppress growth. One may read the LD50 as the dose expected to kill half of the subjects tested. High values mean a less toxic substance, low ones a more toxic substance.
